Values quoted from earlier work in PMC5688156, “The natural product carolacton inhibits folate-dependent C1 metabolism by targeting FolD/MTHFD” (Nature Communications, 2017).

System: human cells
Design: method as in PMID 9765352, PMID 9533527, PMID 9067281
Settings: poor activity; cited from earlier work

Nc1nc2c(c(=O)[nH]1)N1C(=O)N(c3ccc(C(=O)N[C@@H](CCC(=O)O)C(=O)O)cc3)CC1CN2 (stereo partly shown) [LY345899]
IC50: 128 µM
